Results taken from ChEMBL document CHEMBL2417420, “Autotaxin inhibition: development and application of computational tools to identify site-selective lead compounds” (Bioorg Med Chem, 2013).

Target: Autotaxin (Homo sapiens, UniProt Q13822)
Experiment: Inhibition of C-terminal FLAG-tagged human recombinant autotaxin using synthetic substrate FS-3 at 10 uM measured every 2 mins by FRET assay relative to control

inhibition [%] | SMILES
0 | CC(C)c1ccc(OCC(=O)N2CCC(CCCC3CCN(c4ccc(C(=O)N5CCCC5C(N)=O)cn4)CC3)CC2)cc1 (stereo unspecified)
10 | CCCOC(=O)c1ccc(/N=C/c2cccc(OC)c2O)cc1
20 | CC(CC(=O)NCCc1ccncc1)NC(=O)c1cc(-c2ccccc2)nc2ccccc12 (stereo unspecified)
0 | CCCCn1c(CN2CC(C)CC(C)C2)nc2cc(C(=O)NCC(O)CO)ccc21 (stereo unspecified)
10 | CC1CCC(C(C)C)C(OCc2nc3cc(C(=O)NCCOCCO)ccc3n2Cc2ccco2)C1 (stereo unspecified)
0 | Nc1c(/N=N/c2ccc(-c3ccc(/N=N/c4ccc(O)cc4)cc3)cc2)c(S(=O)(=O)O)cc2cc(S(=O)(=O)O)c(/N=N/c3ccccc3)c(O)c12
30 | COc1cccc(C2CC(=O)NC(SCC(=O)Nc3ccccc3C)=C2C#N)c1OC (stereo unspecified)
30 | COc1ccccc1C1CC(=O)NC(SCC(=O)Nc2ccc(Br)cc2)=C1C#N (stereo unspecified)
0 | CCCCCCOc1ccc(/C=N/c2ccc(C)cc2)cc1
20 | CCc1cc2c(cc3c(=O)n(CCCC(=O)NCc4ccc(OC(C)C)cc4)ncn32)s1
0 | COc1cc(/C=C2/SC(=S)N(Cc3ccccc3)C2=O)ccc1OC(=O)c1cccs1
20 | CC1CCC(OCC(=O)N2CCN(c3ncccc3C(=O)N3CCCC3C(N)=O)CC2)C(C(C)C)C1 (stereo unspecified)
0 | COc1ccc(-c2cc(C(=O)NC(C)(C)C(=O)NCCN(C(C)C)C(C)C)c3ccccc3n2)cc1
30 | COc1cc(C2CC(=O)NC(SCc3ccccc3)=C2C#N)ccc1O (stereo unspecified)
10 | Cc1ccc(-c2ccc(-c3nnc(CCCC(=O)NC(CO)CO)o3)cc2)cc1
20 | COCCOCC(=O)N1CCN(c2ccc(C(=O)NC(C(N)=O)C(C)O)cn2)CC1C (stereo unspecified)
10 | COc1ccc(-c2cc(C(F)(F)F)n3nc(C(=O)Nc4cc(Sc5ccc(Br)cc5)cc([N+](=O)[O-])c4)c(Cl)c3n2)cc1OC
30 | Cc1[nH]c2ccccc2c1CC(=O)N1CCN(C(=O)c2ccccc2C(=O)c2ccc(Cl)cc2)CC1
30 | CCCCOc1ccc(-c2nc3cc(C(=O)NCc4ccc(C(F)(F)F)cc4)ccc3n2CCc2ccc(OC)c(OC)c2)cc1
30 | COc1cc(OC)cc(-c2nc3cc(C(=O)NCCc4ccccc4)ccc3n2CCc2ccc(OC)c(OC)c2)c1
10 | O=C1/C(=C\c2cc(Cc3ccccc3)ccc2O)SC(=S)N1Cc1ccccc1
10 | CCCCOc1ccc(-c2nc3cc(C(=O)NCCOCCO)ccc3n2Cc2ccco2)cc1
30 | O=C(O)[C@@H](Cc1ccc(O)cc1)/N=C1\S/C(=C\c2ccc(-c3cccc(Cl)c3)o2)C(=O)N1c1ccccc1
10 | CCN(CCCCOC(=O)c1ccc(OC)c(OC)c1)C(C)Cc1ccc(OC)cc1 (stereo unspecified)
10 | O=C(NCCOCCO)c1ccc2c(c1)nc(CN1CCC(N3CCCC3)CC1)n2CC1CC1
10 | N#CC1=C(SCC(=O)Nc2ccc(Br)cc2)NC(=O)CC1c1ccc(O)cc1 (stereo unspecified)
20 | COc1cccc(CCNC(=O)c2ccc3c(c2)nc(-c2cc(OC)cc(OC)c2)n3CCc2ccc(OC)c(OC)c2)c1
0 | CCc1nc2ccc(C(=O)N3CCN(C(C)=O)CC3)cn2c1N(C)C(=O)COc1ccccc1
30 | Cn1cc(S(=O)(=O)N2CCc3ccccc32)cc1C(=O)N1CCC(Cc2ccccc2)CC1

Continued, compound first:

SMILES | inhibition [%]
Cc1cccc(S(=O)(=O)N2CCn3nc(C4CCC(CNC(=O)CC(C)C)CC4)cc32)c1 (stereo unspecified) | 20
CCOc1cc(CC2SC(N3CCN(C4=NC(=O)C(Cc5ccc(O)c(OCC)c5)S4)CC3)=NC2=O)ccc1O (stereo unspecified) | 30
CC1CCC(C(C)C)C(OCC(=O)N2CCCN(c3ncccc3C(=O)N3CCCC3C(N)=O)CC2)C1 (stereo unspecified) | 20
CC[C@@H]1CN2CCc3cc(OC)c(OC)cc3[C@@H]2C[C@@H]1C[C@@H]1c2cc(OC)c(OC)cc2CCN1C(=O)COCC(=O)N1CCc2cc(OC)c(OC)cc2[C@@H]1C[C@H]1C[C@H]2c3cc(OC)c(OC)cc3CCN2C[C@@H]1CC | 0
COCCCn1c(CN2CCN(c3ccccc3F)CC2)nc2cc(C(=O)NCC(O)CO)ccc21 (stereo unspecified) | 10
CC(O)C(NC(=O)c1ccc(N2CCN(C(=O)Cc3ccc(O)cc3)CC2)nc1)C(N)=O (stereo unspecified) | 10
N#CC1CCCC(NC(=O)c2cccc(S(=O)(=O)Nc3ccc(Br)cc3)c2)C1 (stereo unspecified) | 0
CCCCCCCCCCCCCCCCS(=O)(=O)c1ccc(S(=O)(=O)N/N=c2\sc3ccc(S(=O)(=O)O)cc3n2C)cc1C(=O)O | 20
O=C(O)c1cc(-c2ccc(/C=C3/SC(=S)N(CCc4ccccc4)C3=O)o2)ccc1Cl | 20
O=C(O)[C@@H](Cc1ccccc1)N1C(=O)/C(=C/c2cccc(Oc3ccc(Cl)cc3)c2)SC1=S | 10
CCOc1ccc(/N=C\c2ccc(OCC)c(OCC)c2)cc1 | 0
COc1ccc(-c2cc(C(=O)NC(C)(C)C(=O)NCCC3CCCN3C)c3ccccc3n2)cc1 (stereo unspecified) | 10
COc1ccc(CCn2c(-c3cc(OC)c(OC)c(OC)c3)nc3cc(C(=O)NCCc4ccccc4)ccc32)cc1OC | 30
CCCCCC(C)(C)c1ccc(Oc2ccc(NC(=O)c3cc(/N=N/c4cccc(OC)c4)c4ccccc4c3O)cc2)cc1 | 10
CC(c1cc2ccccc2o1)N1CCN(C(=O)CCSc2ccc3ccccc3c2)CC1 (stereo unspecified) | 20
O=C(O)CN1C(=O)/C(=C/c2ccc(-c3ccc(Cl)cc3)o2)S/C1=N\c1ccccc1 | 20
CCCCCOc1ccc(/N=C2\C=C(O)C(=O)c3ccccc32)cc1 | 20
CC(C)c1ccc(S(=O)(=O)N2CCn3nc(C4CCC(CNC(=O)c5ccco5)CC4)cc32)cc1 (stereo unspecified) | 20
CCOC(=O)C(=O)NCC1CCC(c2cc3n(n2)CCN3S(=O)(=O)c2cccc(Cl)c2)CC1 (stereo unspecified) | 20

SMILES | inhibition [%]
CCCCCCOc1ccc(C(=O)COC(=O)c2ccccc2-c2ccccc2C(=O)COC(=O)c2ccc(OCCCCCC)cc2)cc1 | 0
CCOc1cc(/C=C2/NC(=O)N(Cc3ccccc3F)C2=O)cc(Br)c1OCc1ccc2ccccc2c1 | 10
CC(C)(C)c1cc(/C=C/C(=O)Nc2ccc(CNC(=O)C(C#N)=C3CCCCC3)cc2)cc(C(C)(C)C)c1O | 20
CS(=O)(=O)N1CCC(N(C(=O)COc2ccccc2)C2CCC2)CC1c1cccc(F)c1 (stereo unspecified) | 30
Cc1ccccc1C(=O)NCC1CCC(c2cc3n(n2)CCN3C(=O)COc2ccccc2)CC1 (stereo unspecified) | 30
C#CCN1C(=O)S/C(=C/c2ccc(OCc3ccc4ccccc4c3)c(OCC)c2)C1=O | 0
Cc1ccc(NC(=O)CN2C(=O)N/C(=C/c3ccc(OCc4cccc([N+](=O)[O-])c4)cc3)C2=O)cc1 | 0
O=C(O)CN1C(=O)/C(=C\c2ccc(OCc3cccc4ccccc34)cc2)SC1=S | 30
O=C(O)CN1C(=O)/C(=C/c2cccc(Oc3ccccc3)c2)S/C1=N\c1ccccc1 | 0
COc1cccc(CCNC(=O)c2ccc3c(c2)nc(-c2cc(OC)c(OC)c(OC)c2)n3CCc2ccc(OC)c(OC)c2)c1 | 30
CCc1cc2c(cc3c(=O)n(CCCC(=O)NCc4ccc(Cl)cc4)ncn32)s1 | 30
COc1ccc(/C=c2/sc3n(c2=O)NC2(c4ccccc4)N(C)C(=O)N(C)C2(c2ccccc2)N=3)cc1O (stereo unspecified) | 10
CC(CC(=O)N1CCCN(c2ccc(C(=O)NC(C(N)=O)C(C)O)cn2)CC1)c1ccccc1 (stereo unspecified) | 0
COc1ccc(C2CC(=O)NC(SCC(=O)Nc3ccc(I)cc3)=C2C#N)cc1 (stereo unspecified) | 20
COc1ccc(-c2cc(C(=O)NC(C(=O)NCCCCCCO)C(C)C)c3ccccc3n2)cc1C (stereo unspecified) | 10
CC(CNC(=O)c1cc(-c2ccccc2)nc2ccccc12)C(=O)NCCNc1ccccc1 (stereo unspecified) | 10
CC(O)C(NC(=O)c1ccc(N2CCN(C(=O)CCC(=O)c3ccccc3)CC2)nc1)C(N)=O (stereo unspecified) | 20
COc1ccc(OC)c(C(=O)NC(CC(=O)NCCc2c[nH]c3ccccc23)c2ccccc2)c1 (stereo unspecified) | 20
CCn1c(CN2CCc3ccccc3C2)nc2cc(C(=O)NCC(O)CO)ccc21 (stereo unspecified) | 20

SMILES | inhibition [%]
CCN(C(=O)c1cccc(/C=C2\SC(=S)N([C@H](Cc3ccccc3)C(=O)O)C2=O)c1)c1ccccc1 | 30
CCOC(=O)c1sc(NC(=O)c2ccc(Oc3ccc(C(=O)Nc4sc(C(=O)OCC)c(C)c4C(=O)OCC)cc3)cc2)c(C(=O)OCC)c1C | 10
CC(=O)N1c2ccc(NC(=O)c3ccc(Cl)cc3Cl)cc2C2(c3ccccc3)N(C(C)=O)c3ccc(NC(=O)c4ccc(Cl)cc4Cl)cc3C12c1ccccc1 (stereo unspecified) | 10
COc1cc([C@@H]2C(C(=O)c3cccs3)=C(O)C(=O)N2CCc2ccccc2)cc(Br)c1O | 20
O=C(NCC(O)CO)c1ccc2c(c1)nc(COCc1ccccc1)n2Cc1ccco1 (stereo unspecified) | 30
COc1ccc(OC)c(NC(=S)N2CCn3cccc3C2c2ccc(OC)c(OC)c2)c1 (stereo unspecified) | 30
COc1cc(/C=N/NC(=O)c2cc(-c3ccc(OC)c(OC)c3)n[nH]2)ccc1O | 10
COc1cc(CCNC(=O)c2ccc3c(c2)nc(-c2cccc(C)c2)n3CCc2ccc(OC)c(OC)c2)cc(OC)c1 | 30
CC(=O)N1CCc2cc(NC(=O)c3ccc4nc(C)c(N(C)C(=O)CCc5ccccc5)n4c3)ccc21 | 20
CC(C)c1ccc(OCC(=O)N2CCN(c3ncccc3C(=O)N3CCCC3C(N)=O)CC2C)cc1 (stereo unspecified) | 30
CCCCCOc1ccc(/C=N/c2ccc(/N=C/c3ccc(OCCCCC)cc3)c(Cl)c2)cc1 | 0
COc1ccccc1/C=C1\SC(=O)N(CCC(=O)N2c3ccccc3Sc3ccc(Cl)cc32)C1=O | 30
CCOc1cc(/C=C2/NC(=O)N(Cc3cccc(F)c3)C2=O)cc(Cl)c1OCC | 10
CCn1c2ccccc2c2cc(/C=C3\SC(=S)N([C@H](Cc4ccccc4)C(=O)O)C3=O)ccc21 | 0
CC(C)Cc1ccc(C(C)C(=O)N2CCN(c3ncccc3C(=O)NC(C(N)=O)C(C)O)CC2)cc1 (stereo unspecified) | 20
COc1ccc(CCn2c(C(C)Oc3ccccc3)nc3cc(C(=O)NCCOCCO)ccc32)cc1OC (stereo unspecified) | 20
COc1cc(C2CC(=O)NC(SCC(=O)Nc3c(C)cc(C)cc3C)=C2C#N)ccc1OCc1ccccc1 (stereo unspecified) | 30
CC(O)C(NC(=O)c1cccnc1N1CCC(CCCC2CCN(C(=O)CCC(=O)c3ccccc3)CC2)CC1)C(N)=O (stereo unspecified) | 30
NC(=O)C(Cc1ccc(O)cc1)NC(=O)c1ccc(N2CCN(C(=O)C(N)Cc3ccccc3)CC2)nc1 (stereo unspecified) | 10
